Values of other authors, collected in patent US20060127506A1, “Compositions of S-adenosyl-L-methionine” (priority 2004, published 2006).

Assays:
beta-adrenergic = settings: L-form vs D-enantiomer
[1] = oral; alcoholic liver cirrhosis; compared with placebo treated group
[2] = system: S-adenosyl-L-methionine-dependent methyltransferases
[3] = system: nucleolar 2-O-methyltransferase; settings: (S,S) vs (R,S) diastereomer
[4] = optical purity of 97-100% (Berna et al, US 20020010147)

## CC(C)NCC(O)COc1cccc2ccccc12 (stereo not drawn) [propranolol]
beta-adrenergic
  potency of L-form relative to D-enantiomer: 100 times

## C[S+](CC[C@H](N)C(=O)[O-])C[C@H]1O[C@@H](n2cnc3c(N)ncnc32)[C@H](O)[C@@H]1O (stereo partly drawn) [S-adenosyl-L-methionine]
[1]
  overall mortality and/or progression to liver transplant: 12%

## C[S@@+](CC[C@@H](N)C(=O)O)C[C@H]1O[C@@H](n2cnc3c(N)ncnc32)[C@H](O)[C@@H]1O [(R,S)-S-adenosyl-L-methionine]
Other methyltransferases
  extent of binding relative to (S,S)-S-adenosyl-L-methionine: to the same extent
[2]
  inhibition of enzyme-catalyzed transmethylation reactions: potent inhibitor

## C[S@@+](CC[C@H](N)C(=O)O)C[C@H]1O[C@@H](n2cnc3c(N)ncnc32)[C@H](O)[C@@H]1O [(S,S)-S-adenosyl-L-methionine]
[3]
  tightness of enzyme binding relative to (R,S)-S-adenosyl-L-methionine: 10 fold
[4]
  time for which optical purity is sustained before epimerization begins again: ≤ 4 months
